Data published in US20250163047A1, “HETEROCYCLIC COMPOUNDS, COMPOSITIONS THEREOF, AND METHODS OF TREATMENT THEREWITH” (BeiGene, Ltd., priority 2022, published 2025).

Key:
Cbl-b (aa36-427) = molecular target: T1, Cbl-b (aa36-427) (Homo sapiens, UniProt Q13191); test: Co-expressed Cbl-b with BirA biochemical assay (CBLB/E2-Ub binding, HTRF); details: 0.6 nM Cbl-b co-expressed with BirA, HTRF; read-out: co-express CBLB/E2-Ub-binding assay IC50
T1 construct: Cbl-b (aa36-427, in-house); made in house
T1 sequence (Q13191 36-427): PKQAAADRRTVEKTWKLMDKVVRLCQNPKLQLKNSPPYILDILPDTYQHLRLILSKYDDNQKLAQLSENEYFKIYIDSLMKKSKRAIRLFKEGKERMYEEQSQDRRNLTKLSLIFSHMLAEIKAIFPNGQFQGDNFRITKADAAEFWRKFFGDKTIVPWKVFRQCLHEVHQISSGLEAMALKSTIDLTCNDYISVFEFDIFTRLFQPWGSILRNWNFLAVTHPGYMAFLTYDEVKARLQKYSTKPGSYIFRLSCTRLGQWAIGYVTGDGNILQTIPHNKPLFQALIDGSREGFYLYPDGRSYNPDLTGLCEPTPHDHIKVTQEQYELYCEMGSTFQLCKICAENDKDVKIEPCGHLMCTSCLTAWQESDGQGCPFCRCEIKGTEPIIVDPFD
Text: (§1) The assay in the absence of a Cbl-b/Cbl inhibitor, where phosphorylation of Cbl-b/Cbl by the Src kinase allows UbcH5B-Ub to bind to Cbl-b/Cbl and brings the Bodipy-Fluorescein tagged ubiquitin in proximity to the streptavidin-terbium bound to the N-terminal biotinylated Avi-tagged Cbl-b/Cbl. […] The lack of a FRET signal indicates Cbl-b/Cbl is inhibited by the Cbl-b/Cbl inhibitor.

Cbl (aa49-434) = molecular target: T2, Cbl (aa49-434) (Homo sapiens, UniProt P22681); test: Co-expressed Cbl with BirA biochemical assay (CBL/E2-Ub binding, HTRF); details: 0.6 nM Cbl co-expressed with BirA, read-out: co-express CBL/E2-Ub-binding assay IC50
T2 construct: Cbl (aa49-434, in-house); made in house
T2 sequence (P22681 49-434): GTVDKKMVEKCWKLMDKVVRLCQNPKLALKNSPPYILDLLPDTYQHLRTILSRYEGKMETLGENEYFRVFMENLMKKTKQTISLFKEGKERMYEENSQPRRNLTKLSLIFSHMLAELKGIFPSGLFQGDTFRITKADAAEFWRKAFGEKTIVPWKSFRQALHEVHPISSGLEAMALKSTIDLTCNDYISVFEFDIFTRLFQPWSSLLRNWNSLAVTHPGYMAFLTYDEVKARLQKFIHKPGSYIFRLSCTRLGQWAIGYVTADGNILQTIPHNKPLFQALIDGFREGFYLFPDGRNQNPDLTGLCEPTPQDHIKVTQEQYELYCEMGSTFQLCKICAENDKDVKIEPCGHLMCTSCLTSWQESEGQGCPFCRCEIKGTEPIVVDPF
Text: as §1

Compound | IC50 (Cbl-b (aa36-427)) | IC50 (Cbl (aa49-434))
Cn1cnnc1[C@]1(c2cccc(NC(=O)c3cc(CNCC4CCC4)cn4ccnc34)c2)C[C@H](CC#N)C1 [Compound A43, N-(3-((1s, 3s)-3-(cyanomethyl)-1-(4-methyl-4H-1,2,4-triazol-3-yl)cyclobutyl)phenyl)-6-(((cyclobutylmethyl)amino)methyl)imidazo[1,2-a]pyridine-8-carboxamide] | 2 nM | 12 nM
C[C@H](NCc1cc(C(=O)Nc2cccc([C@]3(c4nncn4C)C[C@@H](C)C3)c2)c2ncc(Cl)n2c1)C1CC1 [Compound A58, 3-chloro-6-((((S)-1-cyclopropylethyl)amino)methyl)-N-(3-((1s,3R)-3-methyl-1-(4-methyl-4H-1,2,4-triazol-3-yl)cyclobutyl)phenyl)imidazo[1,2-a]pyridine-8-carboxamide] | 0.7 nM | 2.6 nM
N-(3-((1s,3R)-3-methyl-1-(4-methyl-4H-1,2,4-triazol-3-yl)cyclobutyl)phenyl)-7′-(((S)-3-methylpiperidin-1-yl)methyl)-1′,2′-dihydrospiro[cyclopropane-1,3′-pyrrolo[3,2-b]pyridine]-5′-carboxamide [Compound C51] | 1.5 nM | 4.9 nM
Cn1cnnc1[C@]1(c2cccc(NC(=O)c3cc(CNC4(C)CC4)cc4ccnn34)c2)C[C@H](C)C1 [Compound A91, N-(3-((1s, 3s)-3-methyl-1-(4-methyl-4H-1,2,4-triazol-3-yl)cyclobutyl)phenyl)-5-(((1-methylcyclopropyl)amino)methyl)pyrazolo[1,5-a]pyridine-7-carboxamide] | 0.6 nM | 4.1 nM
C[C@H](NCc1cc(C(=O)Nc2cccc([C@]3(c4nncn4C)C[C@@H](C)C3)c2)c2nccn2c1)C1CCC1 [Compound A70, 6-((((S)-1-cyclobutylethyl)amino)methyl)-N-(3-((1s,3R)-3-methyl-1-(4-methyl-4H-1,2,4-triazol-3-yl)cyclobutyl)phenyl)imidazo[1,2-a]pyridine-8-carboxamide] | 1.1 nM | 4.1 nM
Cn1cnnc1[C@]1(c2cccc(NC(=O)c3cc(CNC4(C)CC4)cn4ccnc34)c2)C[C@@H](C)C1 [Compound A90, N-(3-((1r, 3r)-3-methyl-1-(4-methyl-4H-1,2,4-triazol-3-yl)cyclobutyl)phenyl)-6-(((1-methylcyclopropyl)amino)methyl)imidazo[1,2-a]pyridine-8-carboxamide] | 0.5 nM | 3.2 nM
[2H]C([2H])([2H])n1cnnc1[C@]1(c2cccc(NC(=O)c3cc(CNC4(C)CC4)cn4ccnc34)c2)C[C@H](C)C1 [Compound A95, N-(3-((1s, 3s)-3-methyl-1-(4-(methyl-d3)-4H-1,2,4-triazol-3-yl)cyclobutyl)phenyl)-6-(((1-methylcyclopropyl)amino)methyl)imidazo[1,2-a]pyridine-8-carboxamide] | 0.7 nM | 3.4 nM
CC(C)CNCc1cc(C(=O)Nc2cccc([C@]3(c4nncn4C)C[C@@H](C)C3)c2)c2ncc(F)n2c1 [Compound A62, 3-fluoro-6-((isobutylamino)methyl)-N-(3-((1s, 3s)-3-methyl-1-(4-methyl-4H-1,2,4-triazol-3-yl)cyclobutyl)phenyl)imidazo[1,2-a]pyridine-8-carboxamide] | 1.1 nM | 7 nM
Cn1cnnc1[C@]1(c2cccc(NC(=O)c3cc(CNC4(C)CC4)cn4ccnc34)c2)C[C@H](CC#N)C1 [Compound A25, N-(3-((1s, 3s)-3-(cyanomethyl)-1-(4-methyl-4H-1,2,4-triazol-3-yl)cyclobutyl)phenyl)-6-(((1-methylcyclopropyl)amino)methyl)imidazo[1,2-a]pyridine-8-carboxamide] | 1.5 nM | 10.5 nM
CC(C)CNCc1cc(C(=O)Nc2cncc([C@]3(c4nncn4C)C[C@@H](C)C3)c2)c2ncc(F)n2c1 [Compound A79, 3-fluoro-6-((isobutylamino)methyl)-N-(5-((1s, 3s)-3-methyl-1-(4-methyl-4H-1,2,4-triazol-3-yl)cyclobutyl)pyridin-3-yl)imidazo[1,2-a]pyridine-8-carboxamide] | 0.73 nM | 1.4 nM
C[C@H]1CCCN(Cc2cc(C(=O)Nc3cccc([C@]4(c5nncn5C)C[C@@H](CC#N)C4)c3)n3ncnc3c2)C1 [Compound A14, N-(3-((1s,3R)-3-(cyanomethyl)-1-(4-methyl-4H-1,2,4-triazol-3-yl)cyclobutyl)phenyl)-7-(((S)-3-methylpiperidin-1-yl)methyl)-[1,2,4]triazolo[1,5-a]pyridine-5-carboxamide] | 45.3 nM | 185 nM
C[C@H]1CCCN(Cc2cc(C(=O)Nc3cccc([C@]4(c5nncn5C)C[C@@H](C)C4)c3)c3ncc(F)n3c2)C1 [Compound A6, 3-fluoro-6-{[(3S)-3-methylpiperidin-1-yl]methyl}-N-{3-[(1r, 3s)-3-methyl-1-(4-methyl-1,2,4-triazol-3-yl)cyclobutyl]phenyl}imidazo[1,2-a]pyridine-8-carboxamide] | 7.2 nM | 19.8 nM
Cc1cnc2c(C(=O)Nc3cccc([C@]4(c5nncn5C)C[C@@H](C)C4)c3)cc(CNCC3CCC3)cn12 [Compound A53, 6-(((cyclobutylmethyl)amino)methyl)-3-methyl-N-(3-((1s, 3s)-3-methyl-1-(4-methyl-4H-1,2,4-triazol-3-yl)cyclobutyl)phenyl)imidazo[1,2-a]pyridine-8-carboxamide] | 2 nM | 7.7 nM

More lines, now with the values ahead:

IC50 (Cbl-b (aa36-427)) | IC50 (Cbl (aa49-434)) | Compound
2.2 nM | 6.1 nM | CC[C@H](C)NCc1cc(C(=O)Nc2cncc([C@]3(c4nncn4C)C[C@@H](C)C3)c2)nc2cc[nH]c12 [Compound B47, 7-((((S)-sec-butyl)amino)methyl)-N-(5-((1s,3R)-3-methyl-1-(4-methyl-4H-1,2,4-triazol-3-yl)cyclobutyl)pyridin-3-yl)-1H-pyrrolo[3,2-b]pyridine-5-carboxamide]
1.6 nM | 10.4 nM | Cn1cnnc1[C@]1(c2cccc(NC(=O)c3cc(CNC4(C)CC4)c4c(n3)C(C)(C)CC4)c2)C[C@H](CC#N)C1 [Compound C24, N-(3-((1s, 3s)-3-(cyanomethyl)-1-(4-methyl-4H-1,2,4-triazol-3-yl)cyclobutyl)phenyl)-7,7-dimethyl-4(((1methylcyclopropyl)amino)methyl)-6,7-dihydro-5H-cyclopenta[b]pyridine-2-carboxamide]
0.8 nM | 2.3 nM | Cn1cnnc1[C@]1(c2cccc(NC(=O)c3cc(CNCC4CCC4)c4ccsc4n3)c2)C[C@H](C)C1 [Compound B41, 4-{[(cyclobutylmethyl)amino]methyl}-N-{3-[(1r, 3s)-3-methyl-1-(4-methyl-1,2,4-triazol-3-yl)cyclobutyl]phenyl}thieno[2,3-b]pyridine-6-carboxamide]
1.1 nM | 1.5 nM | C[C@H](NCc1cc(C(=O)Nc2cccc([C@]3(c4nncn4C)C[C@@H](CC#N)C3)c2)nc2c1CCC2(C)C)C1CCC1 [Compound C38, N-(3-((1s,3R)-3-(cyanomethyl)-1-(4-methyl-4H-1,2,4-triazol-3-yl)cyclobutyl)phenyl)-4-((((S)-1-cyclobutylethyl)amino)methyl)-7,7-dimethyl-6,7-dihydro-5H-cyclopenta[b]pyridine-2-carboxamide]
2.5 nM | 11.5 nM | Cn1cnnc1[C@]1(c2cccc(NC(=O)c3cc(CNC4(C)CCC4)c4c(n3)C(C)(C)CC4)c2)C[C@H](CC#N)C1 [Compound C40, N-(3-((1s, 3s)-3-(cyanomethyl)-1-(4-methyl-4H-1,2,4-triazol-3-yl)cyclobutyl)phenyl)-7,7-dimethyl-4-(((1-methylcyclobutyl)amino)methyl)-6,7-dihydro-5H-cyclopenta[b]pyridine-2-carboxamide]
1 nM | 2.1 nM | Cn1cnnc1[C@]1(c2cncc(NC(=O)c3cc(CNCC4CCC4)c4[nH]ccc4n3)c2)C[C@H](C)C1 [Compound B40, 7-{[(cyclobutylmethyl)amino]methyl}-N-{5-[(1r, 3s)-3-methyl-1-(4-methyl-1,2,4-triazol-3-yl)cyclobutyl]pyridin-3-yl}-1H-pyrrolo[3,2-b]pyridine-5-carboxamide]
0.6 nM | 0.6 nM | C[C@H](NCc1cc(C(=O)Nc2cncc([C@]3(c4nncn4C)C[C@@H](C)C3)c2)nc2cc[nH]c12)C1CCC1 [Compound B43, 7-({[(1S)-1-cyclobutylethyl]amino}methyl)-N-{5-[(1r, 3s)-3-methyl-1-(4-methyl-1,2,4-triazol-3-yl)cyclobutyl]pyridin-3-yl}-1H-pyrrolo[3,2-b]pyridine-5-carboxamide]
2.7 nM | 6.3 nM | Cn1cnnc1C[C@]1(c2cccc(NC(=O)c3cc(CNC4CCCCC4)c4c(n3)C(C)(C)CO4)c2)C[C@H](C#N)C1 [Compound C48, N-(3-((1r, 3r)-3-cyano-1-((4-methyl-4H-1,2,4-triazol-3-yl)methyl)cyclobutyl)phenyl)-7-((cyclohexylamino)methyl)-3,3-dimethyl-2,3-dihydrofuro[3,2-b]pyridine-5-carboxamide]
